Test results from patent publication US20230131111A1, “BIODEGRADABLE POLYIMIDAZOLIUMS AND OLIGOIMIDAZOLIUMS” (Nanyang Technological University, priority 2020, published 2023).

Legend:
MDR A. baumannii AB-1 = assay: Murine septicemia model; type: in vivo, BALB/c mice; conditions: single dose 15 mg/kg
Experimental: (§1) Murine septicemia model was used to evaluate the in vivo efficacy of PIM1D. The experiment for mice septicemia infection model of MDR P. aeruginosa PAER and MDR A. baumannfi AB-1 was conducted within guidance of approved protocol by the Institutional Care and Use Committee of Nanyang Technological University (NTU IACUC). The experiments for murine septicemia infection model of wild type P. aeruginosa PAO1 and methicillin-resistant S. aureus MRSA USA300 were conducted following protocol reviewed and approved by Animal Ethics and Welfare Committee (AEWC) of Ningbo University. BALB/c female mice (8-9 weeks of age) were used to test the septic shock protection efficacy for all murine infection models. Exponential phase bacteria were washed twice with saline, and re-suspended into the same volume of saline. 300 μL bacterial suspension with varied concentration in 5% mucin was introduced into each mouse via IP injection to first determine the lethal bacterial dosage, and the determined concentration was then used in the following study. […] Mouse survival was monitored over 7 days. […] Bacterial loads were also evaluated in the spleen, liver and kidney of the animal. […] The bacterial levels were analyzed with one-way classification analysis of variance (ANOVA) and two-tailed student's t-test (Graphpad Prism for Windows, version 7).

P. aeruginosa PAO1 [1] = assay: Laboratory evolution of resistance, sequential passage; conditions: 30 days of passage
MRSA USA300 = assay: Neutropenic lung infection model; type: in vivo, BALB/c mice; conditions: 20 mg/kg intratracheal, one week
Experimental: (§2) Immunosuppression was induced by IP injection of cyclophosphamide (150 mg/kg) at day 4 and cyclophosphamide (100 mg/kg) at day 1 into BALB/c female mice (8-9 weeks of age) before infection was introduced. Lung infection was established by intratracheal delivery of MRSA USA300 or K. pneumoniae (#13883). […] The mice were monitored for survival over one week. In a separate experiment, mice lungs were harvested 26 h post-infection and homogenized, followed by plating to check the bacterial burden. The animal study protocols were approved by animal ethics and welfare committee at Ningbo University.

[2] = tested on: methicillin-resistant S. aureus MRSA USA300; assay: Murine septicemia model, immunosuppressed mice; type: in vivo, BALB/c mice; conditions: 15 mg/kg IP at 2 h and 26 h post-infection
Experimental: as §1, with “7). […]” for “7).”

[3] = tested on: P. aeruginosa PAES (clinical); assay: MIC90 broth microdilution; type: cell-based, Pseudomonas aeruginosa
A. baumannii X40 (EDR) = assay: MIC90 broth microdilution; type: cell-based, Acinetobacter baumannii
A. baumannii AB-1 (MDR) = assay: MIC90 broth microdilution; type: cell-based, Acinetobacter baumannii
K. pneumoniae (#13883) = assay: Neutropenic lung infection model; type: in vivo, BALB/c mice
Experimental: as §2

P. aeruginosa PAK pmrB12 = assay: MIC90 broth microdilution; type: cell-based, Pseudomonas aeruginosa
A549 cells = assay: Mammalian cell cytotoxicity, MTT; type: cell-based, Human
K. pneumoniae KPNR (MDR) = assay: MIC90 broth microdilution; type: cell-based, Klebsiella pneumoniae
[4] = tested on: K. pneumoniae SGH10 (clinical strain); assay: MIC90 broth microdilution; type: cell-based, Klebsiella pneumoniae
E. cloacae ECLOS (MDR) = assay: MIC90 broth microdilution; type: cell-based, Enterobacter cloacae
A. baumannii X39 = assay: MIC90 broth microdilution; type: cell-based, Acinetobacter baumannii; parameters: MIC90 A. baumanii X39 (XDR): unit not given here
K. pneumoniae M7 (MDR) = assay: MIC90 broth microdilution; type: cell-based, Klebsiella pneumoniae
E. coli 958 (MDR) = assay: MIC90 broth microdilution; type: cell-based, Escherichia coli
P. aeruginosa PAO1 [5] = assay: MIC90 broth microdilution; type: cell-based, Pseudomonas aeruginosa
P. aeruginosa PAER = assay: MIC90 broth microdilution; type: cell-based, Pseudomonas aeruginosa
[6] = tested on: K. pneumoniae BAK085 (MDR); assay: MIC90 broth microdilution; type: cell-based, Klebsiella pneumoniae
3T3 cells = assay: Mammalian cell cytotoxicity, MTT; type: cell-based, Mouse; conditions: half-maximal inhibition of cell viability
HepG2 cells = assay: Mammalian cell cytotoxicity, MTT; type: cell-based, Human
HEK293 cells = assay: Mammalian cell cytotoxicity, MTT; type: cell-based, Human
A. baumannii X26 = assay: MIC90 broth microdilution; type: cell-based, Acinetobacter baumannii; parameters: MIC90 A. baumanii X26 (MDR): unit not given here
P. aeruginosa PAO1 [7] = assay: Propidium iodide (PI) staining; type: cell-based, Pseudomonas aeruginosa; conditions: 1 h incubation
Experimental: P. aeruginosa PAO1 was used in the PI experiments. Cells grown in MHB were harvested in mid-Log phase and resuspended in fresh MHB. PIM1 or colistin (positive control) was added at the indicated concentrations. After 1-hour incubation with the antimicrobials, the cell suspensions were sampled to determine cells numbers by plate counting. The remaining cells were washed with PBS and stained with PI (15 μg/mL) according to the manufacturer's protocol. Attune N×T Flow cytometry (Thermo Fisher Scientific, USA) was used to determine the percent of cells that had taken up PI (dead cells). A Zeiss LSM800 confocal microscope was used to image cells on a polylysine-coated petri-dish (MatTek Corporation, USA).

E. cloacae CRE (MDR) = assay: MIC90 broth microdilution; type: cell-based, Enterobacter cloacae
[8] = tested on: Burkholderia thailandensis 700388; type: cell-based; parameters: MIC90 Burkholderia thailandensis 700388: unit not given here; conditions: for MIC90 Burkholderia thailandensis 700388: naturally colistin-resistant
P. aeruginosa PAO1 [9] = assay: Killing of stationary phase bacteria; type: cell-based, Pseudomonas aeruginosa
Source text: We used a previously reported method (S. Meylan et al., Cell Chem. Biol. 2017, 24, 195-206) to determine the effect of PIM1 and other antibiotics on the survival of stationary phase P. aeruginosa PAO1, except the stationary-phase cells were obtained by overnight growth in MHB, and we compared PIM1 with GEN. The results were compared to those with P. aeruginosa PAO1 harvested from MHB culture at the mid-Log growth phase. In addition, we tested the ability of an energy source to potentiate PIM1 killing of stationary-phase P. aeruginosa by addition of fumarate (15 mM) to the stationary-phase cells.

P. aeruginosa PAO1 [10] = assay: Membrane electric potential, DiS-C3-(5); type: cell-based, Pseudomonas aeruginosa; conditions: 30 min after addition
Experimental: Agents Chemother. 2000, 44, 3317-3321). […] The cell suspension (180 μL) was then added to each well of a 96-well plate, and the test compounds were added to the wells as indicated to bring the final mixture to 200 μL. Fluorescence was measured in each well every 2 min in a Spark 10M microtiter plate reader (Tecan, Switzerland) with excitation at 622 nm and emission 670 nm. Data were collected at 30 min after the addition of the test compound. Two independent experiments were conducted, and the data here are mean values±SD.

S. aureus USA300 (MRSA) = assay: MIC90 broth microdilution; type: cell-based, Staphylococcus aureus
S. aureus BAA40 (MRSA) = assay: MIC90 broth microdilution; type: cell-based, Staphylococcus aureus; parameters: unit not given here
E. faecalis 583 (VRE) = assay: MIC90 broth microdilution; type: cell-based, Enterococcus faecalis; parameters: unit not given here
[11] = tested on: Mycobacterium bovis bacillus Calmette-Guérin; type: cell-based
[12] = half-maximal inhibition of cell viability

C[C@@H](O)[C@H]1C(=O)N2C(C(=O)O)=C(SCCN=CN)C[C@H]12 [Imp, Imipenem]
survival (MDR A. baumannii AB-1): 80%

O=C(O)c1cn(C2CC2)c2cc(N3CCNCC3)c(F)cc2c1=O [ciprofloxacin]
emergence of resistant mutants (P. aeruginosa PAO1 [1]): ciprofloxacin-resistant mutants emerged

CN[C@H](CC(C)C)C(=O)N[C@H]1C(=O)N[C@@H](CC(N)=O)C(=O)N[C@H]2C(=O)N[C@H]3C(=O)N[C@H](C(=O)N[C@H](C(=O)O)c4cc(O)cc(O)c4-c4cc3ccc4O)[C@H](O)c3ccc(c(Cl)c3)Oc3cc2cc(c3O[C@@H]2O[C@H](CO)[C@@H](O)[C@H](O)[C@H]2O[C@H]2C[C@](C)(N)[C@H](O)[C@H](C)O2)Oc2ccc(cc2Cl)[C@H]1O [vancomycin]
survival (MRSA USA300): 40% | survival [2]: all mice survived

colistin
MIC90 P. aeruginosa PAES (clinical) [3]: 2 µg/mL | MIC90 A. baumannii X40 (EDR) (A. baumannii X40 (EDR)): 8 µg/mL | MIC90 A. baumanii AB-1 (MDR) (A. baumannii AB-1 (MDR)): 2 mg per mL | MIC90 A. baumannii AB-1 (MDR) (A. baumannii AB-1 (MDR)): 2 µg/mL | survival (K. pneumoniae (#13883); 20 mg/kg intratracheal, one week): survived | reduction of K. pneumoniae in lung (K. pneumoniae (#13883); single 20 mg/kg intratracheal, versus infection control): similar | MIC90 P. aeruginosa PAK pmrB12 (P. aeruginosa PAK pmrB12): 16 µg/mL | IC50 Human epithelial (A549) (A549 cells; MTT): >1,024 μg/ml | IC50 Human epithelial (A549) (A549 cells; [12]): >1024 μg per mL | MIC90 K. pneumoniae KPNR (MDR) (K. pneumoniae KPNR (MDR)): 2 µg/mL | MIC90 K. pneumoniae SGH10 (clinical strain) [4]: 2 µg/mL | MIC90 E. cloacae ECLOS (MDR) (E. cloacae ECLOS (MDR)): 16 µg/mL | MIC90 A. baumanii X39 (XDR) (A. baumannii X39): 4-8 | MIC90 A. baumannii X39 (EDR) (A. baumannii X39): 4 to 8 µg/mL | MIC90 K. pneumoniae M7 (MDR) (K. pneumoniae M7 (MDR)): 16 to 32 µg/mL | MIC90 E. coli 958 (MDR) (E. coli 958 (MDR)): 2 µg/mL | MIC90 P. aeruginosa PAO1 (P. aeruginosa PAO1 [5]): 2 µg/mL | MIC90 P. aeruginosa PAER (P. aeruginosa PAER): 1 mg per mL | MIC90 P. aeruginosa PAER (MDR) (P. aeruginosa PAER): 1 µg/mL | MIC90 K. pneumoniae BAK085 (MDR) [6]: 2 µg/mL | IC50 Mouse fibroblast (3T3) (3T3 cells): >1024 μg per mL | IC50 Human liver (HepG2) (HepG2 cells; MTT): >1024 µg/mL | IC50 Human liver (HepG2) (HepG2 cells; [12]): >1024 μg per mL | IC50 Human kidney (HEK293) (HEK293 cells; MTT): 64 µg/mL | IC50 Human kidney (HEK293) (HEK293 cells; [12]): 64 μg per mL | MIC90 A. baumanii X26 (MDR) (A. baumannii X26): 2 | MIC90 A. baumannii X26 (EDR) (A. baumannii X26): 2 µg/mL | propidium iodide uptake (P. aeruginosa PAO1 [7]): almost all cells treated with colistin were stained | MIC90 E. cloacae CRE (MDR) (E. cloacae CRE (MDR)): 2 µg/mL | MIC90 B. Thailandensis 700388 [8]: >128 µg/mL | MIC90 Burkholderia thailandensis 700388 [8]: >128

gentamicin
susceptibility of stationary phase cells to killing (P. aeruginosa PAO1 [9]; compared with killing by colistin, 4-h exposure): much less susceptible | bactericidal activity on stationary-phase cells with fumarate (P. aeruginosa PAO1 [9]; fumarate 15 mM): restored

gramicidin
DiS-C3-(5) fluorescence (dissipation of membrane potential) (P. aeruginosa PAO1 [10]): dramatic increase in DiS-C3-(5) fluorescence

polymyxin B
MIC90 A. baumanii AB-1 (MDR) (A. baumannii AB-1 (MDR)): 2 mg per mL | MIC90 S. aureus USA300 (MRSA) (S. aureus USA300 (MRSA)): 64-128 mg per mL | IC50 Human epithelial (A549) (A549 cells; [12]): 879 μg per mL | MIC90 A. baumanii X39 (XDR) (A. baumannii X39): 8 | MIC90 S. aureus BAA40 (MRSA) (S. aureus BAA40 (MRSA)): 64-128 | MIC90 P. aeruginosa PAER (P. aeruginosa PAER): 2 mg per mL | IC50 Mouse fibroblast (3T3) (3T3 cells): 920 μg per mL | IC50 Human liver (HepG2) (HepG2 cells; [12]): 765 μg per mL | IC50 Human kidney (HEK293) (HEK293 cells; [12]): 240 μg per mL | MIC90 A. baumanii X26 (MDR) (A. baumannii X26): 4 | MIC90 E. faecalis 583 (VRE) (E. faecalis 583 (VRE)): >128 | MIC90 Mycobacterium bovis bacillus Calmette-Guérin [11]: 64 mg per mL | MIC90 Burkholderia thailandensis 700388 [8]: >128
